B1: nidogen-1: human nidogen-1 linker protein (R&D systems) (protein, UniProt P14543 29-1247, looked up)
Nidogen-1: LSRQELFPFGPGQGDLELEDGDDFVSPALELSGALRFYDRSDIDAVYVTTNGIIATSEPPAKESHPGLFPPTFGAVAPFLADLDTTDGLGKVYYREDLSPSITQRAAECVHRGFPEISFQPSSAVVVTWESVAPYQGPSRDPDQKGKRNTFQAVLASSDSSSYAIFLYPEDGLQFHTTFSKKENNQVPAVVAFSQGSVGFLWKSNGAYNIFANDRESVENLAKSSNSGQQGVWVFEIGSPATTNGVVPADVILGTEDGAEYDDEDEDYDLATTRLGLEDVGTTPFSYKALRRGGADTYSVPSVLSPRRAATERPLGPPTERTRSFQLAVETFHQQHPQVIDVDEVEETGVVFSYNTDSRQTCANNRHQCSVHAECRDYATGFCCSCVAGYTGNGRQCVAEGSPQRVNGKVKGRIFVGSSQVPIVFENTDLHSYVVMNHGRSYTAISTIPETVGYSLLPLAPVGGIIGWMFAVEQDGFKNGFSITGGEFTRQAEVTFVGHPGNLVIKQRFSGIDEHGHLTIDTELEGRVPQIPFGSSVHIEPYTELYHYSTSVITSSSTREYTVTEPERDGASPSRIYTYQWRQTITFQECVHDDSRPALPSTQQLSVDSVFVLYNQEEKILRYALSNSIGPVREGSPDALQNPCYIGTHGCDTNAACRPGPRTQFTCECSIGFRGDGRTCYDIDECSEQPSVCGSHTICNNHPGTFRCECVEGYQFSDEGTCVAVVDQRPINYCETGLHNCDIPQRAQCIYTGGSSYTCSCLPGFSGDGQACQDVDECQPSRCHPDAFCYNTPGSFTCQCKPGYQGDGFRCVPGEVEKTRCQHEREHILGAAGATDPQRPIPPGLFVPECDAHGHYAPTQCHGSTGYCWCVDRDGREVEGTRTRPGMTPPCLSTVAPPIHQGPAVPTAVIPLPPGTHLLFAQTGKIERLPLEGNTMRKTEAKAFLHVPAKVIIGLAFDCVDKMVYWTDITEPSIGRASLHGGEPTTIIRQDLGSPEGIAVDHLGRNIFWTDSNLDRIEVAKLDGTQRRVLFETDLVNPRGIVTDSVRGNLYWTDWNRDNPKIETSYMDGTNRRILVQDDLGLPNGLTFDAFSSQLCWVDAGTNRAECLNPSQPSRRKALEGLQYPFAVTSYGKNLYFTDWKMNSVVALDLAISKETDAFQPHKQTRLYGITTALSQCPQGHNYCSVNNGGCTHLCLATPGSRTCRCPDNTLGVDCIEQK
B2: Wnt3a: morphogen Wnt3a, 10 ng/ml (R&D systems) (protein, UniProt P56704 19-352, looked up)
Protein Wnt-3a: SYPIWWSLAVGPQYSSLGSQPILCASIPGLVPKQLRFCRNYVEIMPSVAEGIKIGIQECQHQFRGRRWNCTTVHDSLAIFGPVLDKATRESAFVHAIASAGVAFAVTRSCAEGTAAICGCSSRHQGSPGKGWKWGGCSEDIEFGGMVSREFADARENRPDARSAMNRHNNEAGRQAIASHMHLKCKCHGLSGSCEVKTCWWSQPDFRAIGDFLKDKYDSASEMVVEKHRESRGWVETLRPRYTYFKVPTERDLVYYEASPNFCEPNPETGSFGTRDRTCNVSSHGIDGCDLLCCGRGHNARAERRREKCRCVFHWCCYVSCQECTRVYDVHTCK

What was measured:
hESC = conditions: cited from earlier work
hES cells = experiment: ES cell aggregation under different conditions (EB formation by centrifugation, Example 1); format: cell-based, human; conditions: inducer at 0.1 mg/ml (each protein)
Description: Our investigations have shown that two elements when added to the hESC suspensions are sufficient to allow re-aggregation in the absence of MEF or other feeder cells. These two elements are the extracellular matrix proteins laminin and nidogen (Table 1 and FIG. 1A).
By adding human laminin and nidogen complex into suspensions of pure hES cells, cells or products of non-human origin can be completely avoided in the re-aggregation of hESC and the subsequent generation of EB. Laminin binds to the surface of hES cells through the specific receptor integrin α6 β1. […] Nidogen cross-links large molecules of laminin attached to the hES cell receptors into complex three-dimensional structures. When a laminin-nidogen mix is added to a hES cell suspension, highly viable EBs can be generated from as little as 100 hES cells (FIG. 1B).
Using our method, undifferentiated hES cells are prepared as a single cell suspension, plated (at the desired number of cells) into low attachment round bottom 96 well plates and then re-aggregated to form EBs using centrifugation in the presence of the laminin-nidogen complex. hEBs formed in this way have excellent viability, are of uniform size and contain all three germ layers (ectoderm, mesoderm and endoderm)—that can in turn be induced to generate more differentiated tissue. The simplicity of this method of hEB generation reduces the variability inherent in culture systems that require cellular components (such as MEFs) or other complex media. The simplicity of the system also facilitates the testing of variables that affect differentiation of hEB into different tissue types and improves the quantitation of any effects seen. This system may also be used for generation of chimeric EBs when different cell types (e.g., hES cells transduced with fluorescent tag can be mixed with non-transduced hES cells and re-aggregated into one EB with subsequent tracking of progenies arising from the labeled cells.

hESC lines H1 and H9 = experiment: hESC re-aggregation and EB formation, MEF-free modified spin EB method (Example 2); format: cell-based, human
Description: To generate MEF-free EBs, a modification of the “spin EB” method was used (8, 9). Colonies of H1 and H9 hESC (WiCell Inc) (passage 36-50) were cut into uniformed sized pieces using StemProEZPassage tool, transferred onto 6-well plates coated for 1 hour with Matrigel (growth factor reduced, no phenol red; BD Bioscience), and cultured in MEF-conditioned hESC media supplemented with 4 ng/ml FGF2. Pre-culture on Matrigel increases aggregation capacity of hESC (data not shown). After 24 hours, colonies were digested with Tryple Select into a single cell suspension, incubated with SSEA4 antibody, and SSEA4 positive cells sorted with FACS as described above. Before the sorting step 2-3% of the cells in suspension were represented by MEFs and 97-98% by hESC. After sorting, purity of hESC in the preparation was >99.9% as was measured with SSEA4 staining by FACS. These purified hESC were centrifuged at 1400 RPM and the resulting pellet was resuspended in previously described differentiation media, transferred into low attachment round-bottom 96 well culture plates (Nunc, Rochester, N.Y.) and centrifuged at 1400 RPM for 7 min with or without inducers of aggregation. To test the effects on cell aggregation, a mixture of ECMs in the form of Matrigel (5, 25, 100, 200, μg/ml) a solubilized basement membrane preparation extracted from the Engelbreth-Holm-Swarm (EHS) mouse sarcoma; murine laminin-111 and nidogen-1 complex (5, 25, 100, 200 μg/ml) from EHS sarcoma; or purified human collagen IV (1, 5, 25, 50 μg/ml) (all from BD Bioscience); human laminin-511 (1,5, 25, 50 μg/ml) (Sigma-Aldrich) and human nidogen-1 (1,5, 25, 50 μg/ml) (R&D systems) were added to the cell suspension prior to centrifugation. For directed differentiated of the EBs, differentiation media was supplemented with human vascular endothelial growth factor (VEGF), FGF2, bone morphogenic protein 4 (BMP4), or Wnt3a (all at 10 ng/ml; R&D systems) or FCS (Omega Scientific Inc. Tarzana, Calif.), prior to the final centrifugation step dependent upon experimental design.
Lower concentrations were not sufficient to aggregate all cells in the well. Higher concentrations of Matrigel increased viscosity and blocked efficient pellet formation during centrifugation.
To further dissect the mechanisms of hESC aggregation, the key ECM proteins were tested individually at a range of concentrations with regards to their capacity to assemble dispersed hESC into EBs. […] Thus, the presence of both laminin (either 111 or 511) and nidogen-1 was required for hESC aggregation.

LN-EBs from hESC = experiment: Germ layer differentiation of LN-EBs (immunohistochemistry for nestin, CD34, alpha-fetoprotein); format: cell-based, human
Description: FIG. 4: Generation of ectodermal, mesodermal and endodermal derivatives in the “LN-EB” system. “LN-EBs” were generated with the laminin-nidogen complex and in the presence of media designed for specific germ layer differentiation. A. For induction of ectodermal derivatives, serum-free media was supplemented with Wnt3a (10 ng/ml); B. Addition of BMP4, FGF2, VEGF (all 10 ng/ml) to serum-free medium induced formation of endodermal and mesodermal derivatives. C. Addition of 10% FCS, with no exogenous growth factors, induced synchronous generation of the all three germ layers. D. Standard EBs cultured in medium supplemented with 10% FCS. E. Control EBs cultured in serum-free media with no exogenous growth factors. F. No primary antibody control of immunostaining. Immunohistochemical detection of ectoderm, mesoderm and endoderm formation was assessed using antibodies for nestin (left column), CD34 (middle column) and alpha-fetoprotein (right column) respectively. Antigen expression is shown in brown color. Nuclei are stained with hematoxylin (blue). Magnification: 200×. […]
To generate MEF-free EBs, a modification of the “spin EB” method was used (8, 9). […] After sorting, purity of hESC in the preparation was >99.9% as was measured with SSEA4 staining by FACS. […]

[1] = added individually as single agents at a range of concentrations

Row | Molecule | Aggregation (hES cells) | hESC aggregation (hESC lines H1 and H9; [1]) | other results
1 | C[C@@H](N)[C@H]1CC[C@H](C(=O)Nc2ccncc2)CC1 [Y-27632] |  |  | aggregation and EB formation of dissociated hESC (hESC; 10 μM): aggregate and form EBs; survival of hESC after dissociation to single cells (hESC): promote the survival
2 | Collagen IV: extracellular matrix protein collagen IV | − |  | 
3 | Fibronectin | − |  | 
4 | Laminin | + (+ means very little aggregation) |  | 
5 | human collagen-IV: purified human collagen IV (BD Bioscience) [reference compound] |  | No aggregation | 
6 | human laminin-511 complexed with human nidogen-1: ultrapure human laminin-511 complexed with human nidogen-1, ratio laminin to nidogen 9:1 |  |  | hESC aggregation (hESC lines H1 and H9; laminin-511 9-22.5 μg/ml with nidogen-1 1-2.5 μg/ml, ratio laminin to nidogen 9:1): robust aggregation
7 | human laminin-511: human laminin-α5β1γ1 heterotrimer (Sigma-Aldrich) |  | minimal aggregation | 
8 | murine laminin-111-nidogen-1 complex: murine laminin-111 and nidogen-1 complex from EHS sarcoma |  |  | hESC aggregation (hESC lines H1 and H9; 100-200 μg/ml, MEF-free single cell suspension, after centrifugation): robust aggregation
9 | B1 |  | minimal aggregation | 
10 | B2 |  |  | germ layer derivatives suppressed in LN-EBs (LN-EBs from hESC; serum-free medium, growth factors 10 ng/ml): formation of meso-endodermal derivatives labeled with CD34 and alpha-fetoprotein respectively was almost completely abolished; germ layer derivatives formed in LN-EBs (LN-EBs from hESC; supplement in medium (growth factors 10 ng/ml serum-free, or 10% FCS), day 15): neuro-ectodermal epithelial cells that expressed nestin and formed solid neural tube-like structures were efficiently induced

Reference: patent US20100129910A1, “Cell matrix related compositions and their use for generating embryoid bodies” (priority 2008, published 2010)
